Holding throughout (experiment): Kinase selectivity, scanMAX Kinase assay panel (DiscoverX), % control at 1 uM
Assay type in all cases: binding

Assay [1] deals with T1, scanMAX Kinase assay panel (Homo sapiens, UniProt O15530).
T1 construct: purchased DiscoverX
T1 sequence (O15530 1-556): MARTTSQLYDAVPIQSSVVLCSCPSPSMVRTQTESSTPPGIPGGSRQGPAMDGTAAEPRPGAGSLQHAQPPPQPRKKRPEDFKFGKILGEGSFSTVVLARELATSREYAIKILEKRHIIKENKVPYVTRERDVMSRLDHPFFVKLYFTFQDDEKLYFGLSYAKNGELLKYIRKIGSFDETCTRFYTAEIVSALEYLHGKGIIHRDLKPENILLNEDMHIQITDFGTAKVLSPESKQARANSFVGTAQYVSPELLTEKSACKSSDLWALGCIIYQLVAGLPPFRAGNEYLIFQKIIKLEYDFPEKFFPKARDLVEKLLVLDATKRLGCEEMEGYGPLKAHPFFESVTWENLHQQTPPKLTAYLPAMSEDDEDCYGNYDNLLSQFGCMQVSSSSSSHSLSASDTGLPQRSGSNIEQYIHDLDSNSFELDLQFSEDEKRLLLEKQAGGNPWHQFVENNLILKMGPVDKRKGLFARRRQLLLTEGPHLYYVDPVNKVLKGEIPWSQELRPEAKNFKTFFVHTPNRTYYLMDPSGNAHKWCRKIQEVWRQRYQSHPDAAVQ
Particulars: PDPK1; 1 uM; read-out: Percent Control (%). A digest of the protocol: (§1)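 Binding across the scanMAX kinase panel was tested at 1 uM compound. % control = (compound − positive control)/(negative control − positive control) × 100; below 35 counted as active.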

In assay [2] the target is T2, scanMAX Kinase assay panel (Homo sapiens, UniProt Q99558).
T2 construct: purchased DiscoverX
T2 sequence (Q99558 whole entry): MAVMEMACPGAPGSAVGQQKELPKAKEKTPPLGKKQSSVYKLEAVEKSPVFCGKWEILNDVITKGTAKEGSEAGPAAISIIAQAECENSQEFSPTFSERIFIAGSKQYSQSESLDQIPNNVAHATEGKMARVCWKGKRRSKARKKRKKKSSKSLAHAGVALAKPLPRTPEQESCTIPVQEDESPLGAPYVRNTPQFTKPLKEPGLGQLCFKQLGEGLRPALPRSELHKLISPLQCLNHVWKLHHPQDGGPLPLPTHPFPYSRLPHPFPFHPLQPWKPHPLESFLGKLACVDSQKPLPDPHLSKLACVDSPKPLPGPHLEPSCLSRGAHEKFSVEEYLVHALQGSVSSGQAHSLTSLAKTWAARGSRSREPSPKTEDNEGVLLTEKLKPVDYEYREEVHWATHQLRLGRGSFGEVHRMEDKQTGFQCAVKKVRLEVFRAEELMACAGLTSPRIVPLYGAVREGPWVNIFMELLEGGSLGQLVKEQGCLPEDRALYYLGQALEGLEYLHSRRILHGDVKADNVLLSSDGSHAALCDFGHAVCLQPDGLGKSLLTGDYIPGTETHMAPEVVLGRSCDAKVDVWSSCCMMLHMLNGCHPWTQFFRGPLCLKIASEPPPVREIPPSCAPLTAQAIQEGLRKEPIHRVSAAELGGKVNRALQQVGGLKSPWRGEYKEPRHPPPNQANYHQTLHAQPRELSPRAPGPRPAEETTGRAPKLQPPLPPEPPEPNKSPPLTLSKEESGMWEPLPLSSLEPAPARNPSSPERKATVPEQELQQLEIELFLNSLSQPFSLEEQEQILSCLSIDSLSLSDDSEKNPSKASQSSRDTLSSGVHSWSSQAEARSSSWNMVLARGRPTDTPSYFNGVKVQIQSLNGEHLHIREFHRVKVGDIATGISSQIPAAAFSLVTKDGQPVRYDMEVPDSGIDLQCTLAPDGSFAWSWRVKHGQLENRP
Particulars: NIK; 1 uM; read-out: Percent Control (%). A digest of the protocol:
as §1

Assay [3] addresses T3, scanMAX Kinase assay panel (Homo sapiens, UniProt Q99683).
T3 construct: purchased DiscoverX
T3 sequence (Q99683 1-1374): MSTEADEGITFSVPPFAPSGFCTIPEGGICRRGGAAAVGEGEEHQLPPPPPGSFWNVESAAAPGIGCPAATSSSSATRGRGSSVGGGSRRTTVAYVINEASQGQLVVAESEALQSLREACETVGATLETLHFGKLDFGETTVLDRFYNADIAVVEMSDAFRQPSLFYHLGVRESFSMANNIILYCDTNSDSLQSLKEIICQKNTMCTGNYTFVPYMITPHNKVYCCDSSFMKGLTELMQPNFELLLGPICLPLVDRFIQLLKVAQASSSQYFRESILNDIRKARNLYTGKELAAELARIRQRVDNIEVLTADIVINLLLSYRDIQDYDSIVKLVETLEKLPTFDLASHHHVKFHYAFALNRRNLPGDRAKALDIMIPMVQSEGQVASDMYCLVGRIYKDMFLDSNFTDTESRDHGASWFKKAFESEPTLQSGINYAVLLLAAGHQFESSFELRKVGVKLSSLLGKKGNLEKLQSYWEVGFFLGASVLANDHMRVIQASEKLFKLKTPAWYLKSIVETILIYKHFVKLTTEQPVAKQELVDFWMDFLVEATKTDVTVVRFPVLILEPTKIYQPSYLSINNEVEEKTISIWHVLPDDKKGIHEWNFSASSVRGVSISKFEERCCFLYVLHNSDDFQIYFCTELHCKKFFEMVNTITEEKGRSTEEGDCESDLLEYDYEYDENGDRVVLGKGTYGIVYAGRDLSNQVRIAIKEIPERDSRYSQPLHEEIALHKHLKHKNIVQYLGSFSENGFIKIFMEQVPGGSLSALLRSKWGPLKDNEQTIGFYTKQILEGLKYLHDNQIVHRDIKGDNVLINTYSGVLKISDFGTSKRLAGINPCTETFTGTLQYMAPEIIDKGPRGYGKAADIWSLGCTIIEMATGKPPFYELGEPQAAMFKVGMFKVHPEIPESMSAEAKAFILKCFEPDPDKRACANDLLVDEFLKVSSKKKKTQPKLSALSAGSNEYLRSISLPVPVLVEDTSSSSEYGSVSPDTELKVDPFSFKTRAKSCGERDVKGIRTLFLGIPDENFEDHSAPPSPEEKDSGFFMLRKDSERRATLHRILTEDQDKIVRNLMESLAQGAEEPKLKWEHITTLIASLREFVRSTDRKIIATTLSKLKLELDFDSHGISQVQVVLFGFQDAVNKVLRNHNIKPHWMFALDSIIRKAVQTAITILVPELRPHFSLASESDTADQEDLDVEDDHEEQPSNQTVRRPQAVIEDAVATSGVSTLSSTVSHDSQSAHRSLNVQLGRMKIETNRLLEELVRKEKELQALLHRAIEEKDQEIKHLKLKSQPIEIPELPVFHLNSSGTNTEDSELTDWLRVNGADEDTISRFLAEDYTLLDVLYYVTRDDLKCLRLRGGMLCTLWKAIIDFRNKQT
The settings on record: ASK1; 1 uM; read-out: Percent Control (%). In short, it runs like this: as §1

In assay [4] the target is T4, scanMAX Kinase assay panel (Homo sapiens, UniProt Q9BYT3).
T4 construct: purchased DiscoverX
T4 sequence (Q9BYT3 whole entry): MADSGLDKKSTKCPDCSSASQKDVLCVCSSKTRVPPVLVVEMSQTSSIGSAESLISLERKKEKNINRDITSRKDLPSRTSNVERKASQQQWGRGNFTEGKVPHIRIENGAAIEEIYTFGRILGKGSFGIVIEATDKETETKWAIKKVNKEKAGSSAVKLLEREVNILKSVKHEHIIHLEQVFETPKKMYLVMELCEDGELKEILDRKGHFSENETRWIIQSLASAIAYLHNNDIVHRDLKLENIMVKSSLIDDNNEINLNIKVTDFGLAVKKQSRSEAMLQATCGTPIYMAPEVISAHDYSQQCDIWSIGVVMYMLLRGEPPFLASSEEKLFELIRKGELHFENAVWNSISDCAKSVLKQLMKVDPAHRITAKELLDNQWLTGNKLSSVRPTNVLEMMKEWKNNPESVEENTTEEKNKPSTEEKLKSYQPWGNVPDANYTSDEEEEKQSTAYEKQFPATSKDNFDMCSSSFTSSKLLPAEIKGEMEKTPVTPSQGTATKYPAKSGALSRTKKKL
Particulars: STK33; 1 uM; read-out: Percent Control (%). In short, it runs like this: as §1

Assay [5] concerns the target T5, scanMAX Kinase assay panel (Homo sapiens, UniProt Q9P286).
T5 construct: purchased DiscoverX
Particulars: PAK7; 1 uM; read-out: Percent Control (%). A digest of the protocol: as §1

Assay [6] addresses T6, scanMAX Kinase assay panel (Homo sapiens, UniProt Q9Y3S1).
T6 construct: purchased DiscoverX
Particulars: WNK2; 1 uM; read-out: Percent Control (%). A digest of the protocol:
as §1

T6 sequence (Q9Y3S1 whole entry): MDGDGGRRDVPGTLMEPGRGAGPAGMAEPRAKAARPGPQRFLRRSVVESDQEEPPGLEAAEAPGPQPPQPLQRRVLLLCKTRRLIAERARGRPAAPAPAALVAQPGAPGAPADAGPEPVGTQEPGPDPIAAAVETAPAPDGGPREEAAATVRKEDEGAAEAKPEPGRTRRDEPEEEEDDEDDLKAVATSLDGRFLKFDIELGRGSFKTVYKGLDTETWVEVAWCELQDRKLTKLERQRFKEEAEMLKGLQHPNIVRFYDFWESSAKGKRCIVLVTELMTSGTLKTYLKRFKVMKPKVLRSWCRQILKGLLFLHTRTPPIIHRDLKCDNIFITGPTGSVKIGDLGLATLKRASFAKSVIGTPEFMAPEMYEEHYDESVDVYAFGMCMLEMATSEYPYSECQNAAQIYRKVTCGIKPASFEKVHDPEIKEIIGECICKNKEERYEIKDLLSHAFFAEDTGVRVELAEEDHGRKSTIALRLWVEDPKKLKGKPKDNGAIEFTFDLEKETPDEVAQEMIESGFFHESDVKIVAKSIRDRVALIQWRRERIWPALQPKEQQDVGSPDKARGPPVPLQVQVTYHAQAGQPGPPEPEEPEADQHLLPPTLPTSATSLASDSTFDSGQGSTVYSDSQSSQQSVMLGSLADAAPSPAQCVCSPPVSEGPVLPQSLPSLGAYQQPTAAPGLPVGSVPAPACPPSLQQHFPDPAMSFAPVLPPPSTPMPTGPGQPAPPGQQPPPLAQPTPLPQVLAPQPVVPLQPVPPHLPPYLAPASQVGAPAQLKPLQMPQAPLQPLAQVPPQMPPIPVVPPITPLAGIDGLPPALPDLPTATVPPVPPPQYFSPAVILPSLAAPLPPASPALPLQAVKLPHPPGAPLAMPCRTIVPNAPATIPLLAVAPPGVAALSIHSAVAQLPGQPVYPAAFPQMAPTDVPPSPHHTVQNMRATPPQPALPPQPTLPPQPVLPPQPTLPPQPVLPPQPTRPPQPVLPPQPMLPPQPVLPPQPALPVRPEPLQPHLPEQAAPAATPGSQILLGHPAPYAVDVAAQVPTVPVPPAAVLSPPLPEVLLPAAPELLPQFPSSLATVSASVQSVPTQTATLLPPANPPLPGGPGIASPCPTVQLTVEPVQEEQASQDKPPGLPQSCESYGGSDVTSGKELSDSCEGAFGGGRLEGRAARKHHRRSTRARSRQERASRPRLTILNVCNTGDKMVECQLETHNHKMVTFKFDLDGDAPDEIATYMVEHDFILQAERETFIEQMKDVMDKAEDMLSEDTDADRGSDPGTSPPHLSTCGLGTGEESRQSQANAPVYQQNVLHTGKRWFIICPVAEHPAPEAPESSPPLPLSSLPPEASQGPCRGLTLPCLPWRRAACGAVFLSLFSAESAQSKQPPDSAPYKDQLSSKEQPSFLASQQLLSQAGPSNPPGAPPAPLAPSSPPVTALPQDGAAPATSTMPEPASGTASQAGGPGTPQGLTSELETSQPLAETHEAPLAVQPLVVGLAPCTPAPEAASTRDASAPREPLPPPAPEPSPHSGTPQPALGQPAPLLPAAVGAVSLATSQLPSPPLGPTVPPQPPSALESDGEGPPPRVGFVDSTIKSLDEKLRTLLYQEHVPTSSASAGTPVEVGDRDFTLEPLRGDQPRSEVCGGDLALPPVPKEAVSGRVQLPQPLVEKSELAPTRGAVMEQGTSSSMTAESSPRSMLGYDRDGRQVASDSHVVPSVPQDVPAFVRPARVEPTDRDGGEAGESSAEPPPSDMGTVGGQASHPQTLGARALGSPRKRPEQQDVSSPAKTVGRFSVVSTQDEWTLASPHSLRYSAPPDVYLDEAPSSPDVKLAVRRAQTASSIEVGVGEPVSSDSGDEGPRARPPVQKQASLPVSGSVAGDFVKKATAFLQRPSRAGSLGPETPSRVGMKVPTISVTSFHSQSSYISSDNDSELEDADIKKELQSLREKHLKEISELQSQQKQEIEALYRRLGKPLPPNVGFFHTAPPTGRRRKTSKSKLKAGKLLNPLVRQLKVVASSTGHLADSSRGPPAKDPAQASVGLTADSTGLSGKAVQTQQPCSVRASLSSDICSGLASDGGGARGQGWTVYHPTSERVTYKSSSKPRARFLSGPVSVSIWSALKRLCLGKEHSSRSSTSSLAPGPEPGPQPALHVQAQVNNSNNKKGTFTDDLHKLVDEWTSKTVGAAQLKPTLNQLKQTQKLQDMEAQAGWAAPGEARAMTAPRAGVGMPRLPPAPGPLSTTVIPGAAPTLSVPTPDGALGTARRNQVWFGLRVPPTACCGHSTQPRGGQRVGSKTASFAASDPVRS
T5 sequence (Q9P286 whole entry): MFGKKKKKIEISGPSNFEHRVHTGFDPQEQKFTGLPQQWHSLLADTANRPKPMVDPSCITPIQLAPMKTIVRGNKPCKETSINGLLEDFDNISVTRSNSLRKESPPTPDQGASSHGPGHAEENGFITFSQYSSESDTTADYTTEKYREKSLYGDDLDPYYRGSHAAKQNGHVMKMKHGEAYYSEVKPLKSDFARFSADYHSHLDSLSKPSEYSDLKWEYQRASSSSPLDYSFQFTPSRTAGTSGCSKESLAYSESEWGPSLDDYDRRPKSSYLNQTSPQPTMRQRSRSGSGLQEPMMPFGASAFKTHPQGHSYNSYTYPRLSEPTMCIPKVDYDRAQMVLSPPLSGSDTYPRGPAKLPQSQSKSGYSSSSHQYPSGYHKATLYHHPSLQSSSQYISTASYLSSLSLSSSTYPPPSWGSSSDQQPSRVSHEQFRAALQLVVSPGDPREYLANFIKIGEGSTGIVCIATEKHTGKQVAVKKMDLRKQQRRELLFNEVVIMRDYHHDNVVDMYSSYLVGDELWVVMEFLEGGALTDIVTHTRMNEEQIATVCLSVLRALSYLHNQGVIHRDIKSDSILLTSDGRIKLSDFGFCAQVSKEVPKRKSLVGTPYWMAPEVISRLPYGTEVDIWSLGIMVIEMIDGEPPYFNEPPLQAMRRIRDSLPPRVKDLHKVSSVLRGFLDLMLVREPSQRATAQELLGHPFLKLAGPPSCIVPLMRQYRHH

Consider `Cc1ccc(C(=O)Nc2ccc(CN3CCN(C)CC3)c(C(F)(F)F)c2)cc1C#Cc1cnc2c(Nc3cnn(C)c3)cccn12` [Example 1, 4-methyl-3-((8-((1-methyl-1H-pyrazol-4-yl)amino)imidazo[1,2-a]pyridin-3-yl)ethynyl)-N-(4-((4-methylpiperazin-1-yl)methyl)-3-(trifluoromethyl)phenyl)benzamide], for which the remaining binding at 1 µM in assay [1] came out at 50%; in assay [2], 91%; in assay [3], 100%; in assay [4], 5%; in assay [5] it was 100%; in assay [6] it was 82%.

Take `Cc1cn(-c2cc(NC(=O)c3ccc(C)c(C#Cc4cnc5c(Nc6cnn(C)c6)cccn45)c3)cc(C(F)(F)F)c2)cn1` [Example 12, 4-methyl-N-(3-(4-methyl-1H-imidazol-1-yl)-5-(trifluoromethyl)phenyl)-3-((8-((1-methyl-1H-pyrazol-4-yl)amino)imidazo[1,2-a]pyridin-3-yl)ethynyl)benzamide]: the remaining binding at 1 µM in assay [1] was determined as 93%; in assay [2], 85%; in assay [3], 95%; in assay [4], 40%; in assay [5] it was 100%; in assay [6] it was 100%.

As for `Cc1ccc(NC(=O)C2(C(=O)Nc3ccc(F)cc3)CC2)cc1C#Cc1cnc2c(Nc3cnn(C(C)C)c3)cccn12` [Example 78], the remaining binding at 1 µM in assay [1] worked out at 92%; in assay [2], 97%; in assay [3], 100%; in assay [4], 100%; in assay [5], 100%; in assay [6] it was 100%.

Values taken from patent US10870647B2, “Imidazopyridine derivative, method for preparing same, and pharmaceutical composition containing same as active ingredient for preventing or treating cancer” (DAEGU-GYEONGBUK MEDICAL INNOVATION FOUNDATION, priority 2016, dated 2020).
